Results from US8247211B2, “Glycopeptide antibiotics” (American Cyanamid Company, priority 2001, dated 2012).

Tests used:
Assay in all cases: In vitro antibacterial evaluation: minimum inhibitory concentration (MIC), broth dilution method
Assay type in all cases: cell-based
Enterococcus sp. = tested on: Enterococcus sp.
Procedure, shortened: (§1)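 NCCLS M7-A2 broth dilution; Muller-Hinton II […]; 5×10^5 CFU/mL; 64-0.06 μg/mL. MIC = lowest concentration with no growth.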

Escherichia coli = tested on: Escherichia coli
Procedure, shortened: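 An MIC is reported for each organism as the least concentration giving inhibition, using broth dilution over 64-0.06 μg/mL with a 5×10^5 CFU/mL inoculum.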

Staphylococcus sp. = details: for MIC Coagulase Negative Staphylococcus (ID-3941): strain ID-3941
Procedure, shortened: as §1

Streptococcus sp. = tested on: Streptococcus sp.
Procedure, shortened: as §1

[1] = broth dilution, inoculum 5×10^5 CFU/mL, 18 hours at 35° C.
[2] = broth dilution, 18 hours at 35° C.

Cc1ccc(COCC2OC(OC3C(CO)OC(Oc4ccc(CC5NC(=O)C(C(C)c6ccccc6)NC(=O)CNC(=O)C(CO)NC(=O)C(C(O)C6CNC(=N)N6C6OC(CO)C(O)C(O)C6O)NC(=O)C(C(O)C6CNC(=N)N6)NC5=O)cc4)C(O)C3O)C(O)C(O)C2O)cc1 (stereo not shown) [Example 234]
0.12 µg/mL: MIC Streptococcus pneumoniae (GC 1894) (Streptococcus sp.; Streptococcus pneumoniae (GC 1894), 18 hours at 35° C.) | MIC Streptococcus pneumoniae (GC 1894) (Streptococcus sp.; [1])
0.25 µg/mL: MIC Streptococcus pneumoniae (ATCC 6301) (Streptococcus sp.; Streptococcus pneumoniae (ATCC 6301), 18 hours at 35° C.) | MIC Streptococcus pneumoniae (GC 4565) (Streptococcus sp.; Streptococcus pneumoniae (GC 4565), 18 hours at 35° C.) | MIC Streptococcus pneumoniae (ATCC 6301) (Streptococcus sp.; [1]) | MIC Streptococcus pneumoniae (GC 4565) (Streptococcus sp.; [1])
8 µg/mL: MIC Enterococcus avium (GC 4558) (Enterococcus sp.; Enterococcus avium (GC 4558), 18 hours at 35° C.) | MIC Enterococcus faecalis (ATCC 29212) (Enterococcus sp.; Enterococcus faecalis (ATCC 29212), 18 hours at 35° C.) | MIC Enterococcus faecalis (GC 2691) (Enterococcus sp.; Enterococcus faecalis (GC 2691), 18 hours at 35° C.) | MIC Enterococcus faecalis (GC 3059) (Enterococcus sp.; Enterococcus faecalis (GC 3059), 18 hours at 35° C.) | MIC Enterococcus faecalis (GC 4552) (Enterococcus sp.; Enterococcus faecalis (GC 4552), 18 hours at 35° C.) | MIC Enterococcus faecalis (GC 4553) (Enterococcus sp.; Enterococcus faecalis (GC 4553), 18 hours at 35° C.) | MIC Enterococcus faecalis (GC 4554) (Enterococcus sp.; Enterococcus faecalis (GC 4554), 18 hours at 35° C.) | MIC Enterococcus faecalis (GC 6189) (Enterococcus sp.; Enterococcus faecalis (GC 6189), 18 hours at 35° C.) | MIC Enterococcus faecium (GC 2243) (Enterococcus sp.; Enterococcus faecium (GC 2243), 18 hours at 35° C.) | MIC Enterococcus faecium (GC 4556) (Enterococcus sp.; Enterococcus faecium (GC 4556), 18 hours at 35° C.) | MIC Enterococcus faecalis (GC 2691) (Enterococcus sp.; [1]) | MIC Enterococcus faecalis (GC 3059) (Enterococcus sp.; [1])
2 µg/mL: MIC Enterococcus faecium (GC 4557) (Enterococcus sp.; Enterococcus faecium (GC 4557), 18 hours at 35° C.) | MIC Coagulase Negative Staphylococcus (GC 4551) (Staphylococcus sp.; Coagulase Negative Staphylococcus (GC 4551), 18 hours at 35° C.) | MIC Staphylococcus aureus (ATCC 29213) (Staphylococcus sp.; Staphylococcus aureus (ATCC 29213), 18 hours at 35° C.) | MIC Staphylococcus aureus (GC 1131) (Staphylococcus sp.; Staphylococcus aureus (GC 1131), 18 hours at 35° C.) | MIC Staphylococcus aureus (GC 3051) (Staphylococcus sp.; Staphylococcus aureus (GC 3051), 18 hours at 35° C.) | MIC Staphylococcus aureus (GC 3053) (Staphylococcus sp.; Staphylococcus aureus (GC 3053), 18 hours at 35° C.) | MIC Staphylococcus aureus (GC 4541) (Staphylococcus sp.; Staphylococcus aureus (GC 4541), 18 hours at 35° C.) | MIC Staphylococcus aureus (GC 4542) (Staphylococcus sp.; Staphylococcus aureus (GC 4542), 18 hours at 35° C.) | MIC Staphylococcus aureus (GC 4544) (Staphylococcus sp.; Staphylococcus aureus (GC 4544), 18 hours at 35° C.) | MIC Staphylococcus aureus (GC 4545) (Staphylococcus sp.; Staphylococcus aureus (GC 4545), 18 hours at 35° C.) | MIC Staphylococcus aureus-SMITH (GC 4543) (Staphylococcus sp.; Staphylococcus aureus-SMITH (GC 4543), 18 hours at 35° C.)
64 µg/mL: MIC Escherichia coli (ATCC 25922) (Escherichia coli; Escherichia coli (ATCC 25922), 18 hours at 35° C.) | MIC Escherichia coli (GC 4559) (Escherichia coli; Escherichia coli (GC 4559), 18 hours at 35° C.)
1 µg/mL: MIC Escherichia coli (GC 4560) (Escherichia coli; Escherichia coli (GC 4560), 18 hours at 35° C.) | MIC Coagulase Negative Staphylococcus (GC 4547) (Staphylococcus sp.; Coagulase Negative Staphylococcus (GC 4547), 18 hours at 35° C.) | MIC Coagulase Negative Staphylococcus (GC 4548) (Staphylococcus sp.; Coagulase Negative Staphylococcus (GC 4548), 18 hours at 35° C.) | MIC Coagulase Negative Staphylococcus (GC 6257) (Staphylococcus sp.; Coagulase Negative Staphylococcus (GC 6257), 18 hours at 35° C.) | MIC Staphylococcus haemolyticus (GC 4546) (Staphylococcus sp.; Staphylococcus haemolyticus (GC 4546), 18 hours at 35° C.)
4 µg/mL: MIC Enterococcus faecalis (GC 2242) (Enterococcus sp.; Enterococcus faecalis (GC 2242), 18 hours at 35° C.) | MIC Enterococcus faecalis (GC 2242) (Enterococcus sp.; [1])
0.5 µg/mL: MIC Coagulase Negative Staphylococcus (GC 4549) (Staphylococcus sp.; Coagulase Negative Staphylococcus (GC 4549), 18 hours at 35° C.) | MIC Streptococcus agalactiae (GC 4564) (Streptococcus sp.; Streptococcus agalactiae (GC 4564), 18 hours at 35° C.) | MIC Streptococcus pyogenes (GC 4563) (Streptococcus sp.; Streptococcus pyogenes (GC 4563), 18 hours at 35° C.) | MIC Streptococcus agalactiae (GC 4564) (Streptococcus sp.; [1]) | MIC Streptococcus pyogenes (GC 4563) (Streptococcus sp.; [1])

CCCC(CCC)C(=O)OCC1OC(Oc2ccc(CC3NC(=O)C(C(C)c4ccccc4)NC(=O)CNC(=O)C(CO)NC(=O)C(C(O)C4CNC(=N)N4C4OC(CO)C(O)C(O)C4O)NC(=O)C(C(O)C4CNC(=N)N4)NC3=O)cc2)C(O)C(O)C1OC1OC(CO)C(O)C(O)C1O (stereo not drawn) [Example 99b, Cyclo[glycyl-β-methylphenylalanyl-O-(4-O-hexopyranosyl-6-O-(2-propylpentanoyl)hexopyranosyl]tyrosyl-3-(2-iminoimidazolidin-4-yl)seryl-3-(3-hexopyranosyl-2-iminoimidazolidin-4-yl)serylseryl]]
16 µg/mL: MIC Enterococcus faecalis (ATCC 29212) (Enterococcus sp.; strain ATCC 29212) | MIC Enterococcus faecalis (GC 2242) (Enterococcus sp.; strain GC 2242) | MIC Enterococcus faecium (GC 2243) (Enterococcus sp.; strain GC 2243) | MIC Enterococcus faecalis (GC 4553) (Enterococcus sp.; strain GC 4553) | MIC Enterococcus faecium (GC 4556) (Enterococcus sp.; strain GC 4556) | MIC Enterococcus avium (GC 4558) (Enterococcus sp.; strain GC 4558)
>64 µg/mL: MIC Escherichia coli (ATCC 25922) (Escherichia coli; strain ATCC 25922)
<0.5 µg/mL: MIC Streptococcus pneumoniae (GC 4565) (Streptococcus sp.; strain GC 4565)
1 µg/mL: MIC Streptococcus pyogenes (ID-3187) (Streptococcus sp.; strain ID-3187)
4 µg/mL: MIC Enterococcus faecium (GC 4557) (Enterococcus sp.; strain GC 4557) | MIC Staphylococcus aureus (ATCC 29213) (Staphylococcus sp.; [2]) | MIC Staphylococcus aureus (GC 1131) (Staphylococcus sp.; [2]) | MIC Staphylococcus aureus (GC 4541) (Staphylococcus sp.; [2]) | MIC Staphylococcus aureus (GC 4542) (Staphylococcus sp.; [2]) | MIC Staphylococcus aureus (GC 4544) (Staphylococcus sp.; [2]) | MIC Staphylococcus aureus (GC 4545) (Staphylococcus sp.; [2]) | MIC Staphylococcus aureus-SMITH (GC 4543) (Staphylococcus sp.; strain GC 4543, 18 hours at 35° C.) | MIC Staphylococcus aureus-SMITH (GC 4543) (Staphylococcus sp.; strain GC 4543, broth dilution, 18 hours at 35° C.) | MIC Staphylococcus haemolyticus (GC 4546) (Staphylococcus sp.; strain GC 4546) | MIC Staphylococcus haemolyticus (GC 4546) (Staphylococcus sp.; strain GC 4546, broth dilution, 18 hours at 35° C.) | MIC Coagulase Negative Staphylococcus (GC 4547) (Staphylococcus sp.; strain GC 4547) | MIC Coagulase Negative Staphylococcus (GC 4547) (Staphylococcus sp.; strain GC 4547, broth dilution, 18 hours at 35° C.) | MIC Coagulase Negative Staphylococcus (GC 4548) (Staphylococcus sp.; strain GC 4548) | MIC Coagulase Negative Staphylococcus (GC 4548) (Staphylococcus sp.; strain GC 4548, broth dilution, 18 hours at 35° C.)
8 µg/mL: MIC Coagulase Negative Staphylococcus (GC 4551) (Staphylococcus sp.; strain GC 4551) | MIC Coagulase Negative Staphylococcus (GC 4551) (Staphylococcus sp.; strain GC 4551, broth dilution, 18 hours at 35° C.)
32 µg/mL: MIC Enterococcus faecalis (GC 4552) (Enterococcus sp.; strain GC 4552) | MIC Enterococcus faecalis (GC 4554) (Enterococcus sp.; strain GC 4554)
2 µg/mL: MIC Coagulase Negative Staphylococcus (GC 4549) (Staphylococcus sp.; strain GC 4549) | MIC Coagulase Negative Staphylococcus (GC 4549) (Staphylococcus sp.; strain GC 4549, broth dilution, 18 hours at 35° C.) | MIC Coagulase Negative Staphylococcus (ID-3941) (Staphylococcus sp.) | MIC Coagulase Negative Staphylococcus (ID-3941) (Staphylococcus sp.; [2]) | MIC Streptococcus agalactiae (GC 4564) (Streptococcus sp.; strain GC 4564)
